# Columns and labels:
# Test in all cases: Competitive isoTOP-ABPP in situ (fragment-treated cells)
# Type in all cases: cell-based
# [1] = molecular target: T1, cysteines in MDA-MB-231 and Ramos cells (Homo sapiens, UniProt Q96S55); details: 200 μM, insitu, 231
# T1 sequence (Q96S55 1-665): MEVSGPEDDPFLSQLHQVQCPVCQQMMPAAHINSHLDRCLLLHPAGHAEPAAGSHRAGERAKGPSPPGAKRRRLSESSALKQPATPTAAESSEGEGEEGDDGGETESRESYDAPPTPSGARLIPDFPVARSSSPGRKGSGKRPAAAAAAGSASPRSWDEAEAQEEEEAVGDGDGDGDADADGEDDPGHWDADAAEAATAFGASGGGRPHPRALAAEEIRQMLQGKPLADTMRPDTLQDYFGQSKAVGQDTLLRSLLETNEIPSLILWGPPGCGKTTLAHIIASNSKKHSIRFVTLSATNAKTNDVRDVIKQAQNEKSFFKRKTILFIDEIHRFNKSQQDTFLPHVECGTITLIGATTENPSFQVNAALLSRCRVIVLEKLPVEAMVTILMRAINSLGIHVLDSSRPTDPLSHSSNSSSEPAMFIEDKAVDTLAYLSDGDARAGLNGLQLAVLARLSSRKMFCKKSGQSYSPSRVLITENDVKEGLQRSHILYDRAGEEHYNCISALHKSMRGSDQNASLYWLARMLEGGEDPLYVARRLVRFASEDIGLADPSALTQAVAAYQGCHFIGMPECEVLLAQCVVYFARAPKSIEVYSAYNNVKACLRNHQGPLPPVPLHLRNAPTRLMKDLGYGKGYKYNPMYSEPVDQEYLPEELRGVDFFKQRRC
# [2] = molecular target: cysteines in MDA-MB-231 and Ramos cells (Homo sapiens, UniProt Q8TAQ2); details: 200 μM, insitu, ramos
# [3] = molecular target: T2, cysteines in MDA-MB-231 and Ramos cells (Homo sapiens, UniProt P51946); details: 200 μM, insitu, 231
# T2 sequence (P51946 1-323): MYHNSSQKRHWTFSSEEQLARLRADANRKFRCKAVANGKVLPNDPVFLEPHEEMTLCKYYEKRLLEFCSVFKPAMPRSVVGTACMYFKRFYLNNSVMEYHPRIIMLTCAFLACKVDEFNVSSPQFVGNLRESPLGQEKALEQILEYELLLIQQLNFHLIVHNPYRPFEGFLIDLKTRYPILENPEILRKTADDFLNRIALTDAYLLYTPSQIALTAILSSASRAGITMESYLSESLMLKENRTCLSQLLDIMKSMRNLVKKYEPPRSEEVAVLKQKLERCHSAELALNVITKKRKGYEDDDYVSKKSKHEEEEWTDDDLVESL
# [4] = molecular target: T3, cysteines in MDA-MB-231 and Ramos cells (Homo sapiens, UniProt P24752); details: 200 μM, insitu
# T3 sequence (P24752 34-427): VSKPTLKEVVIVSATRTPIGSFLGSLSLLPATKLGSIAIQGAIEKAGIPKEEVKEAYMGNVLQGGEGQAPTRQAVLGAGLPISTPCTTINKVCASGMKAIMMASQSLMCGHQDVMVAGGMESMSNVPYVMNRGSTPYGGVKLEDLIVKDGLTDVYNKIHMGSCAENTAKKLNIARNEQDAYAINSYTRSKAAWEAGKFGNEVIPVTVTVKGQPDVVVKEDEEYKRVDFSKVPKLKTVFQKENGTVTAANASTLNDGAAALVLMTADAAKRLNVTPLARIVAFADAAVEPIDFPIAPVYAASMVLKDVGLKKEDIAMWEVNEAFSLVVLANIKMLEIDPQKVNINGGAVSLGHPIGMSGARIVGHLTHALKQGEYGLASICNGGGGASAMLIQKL
# [5] = molecular target: T4, cysteines in MDA-MB-231 and Ramos cells (Homo sapiens, UniProt Q9BQ69); details: 200 μM, insitu, 231
# T4 sequence (Q9BQ69 1-325): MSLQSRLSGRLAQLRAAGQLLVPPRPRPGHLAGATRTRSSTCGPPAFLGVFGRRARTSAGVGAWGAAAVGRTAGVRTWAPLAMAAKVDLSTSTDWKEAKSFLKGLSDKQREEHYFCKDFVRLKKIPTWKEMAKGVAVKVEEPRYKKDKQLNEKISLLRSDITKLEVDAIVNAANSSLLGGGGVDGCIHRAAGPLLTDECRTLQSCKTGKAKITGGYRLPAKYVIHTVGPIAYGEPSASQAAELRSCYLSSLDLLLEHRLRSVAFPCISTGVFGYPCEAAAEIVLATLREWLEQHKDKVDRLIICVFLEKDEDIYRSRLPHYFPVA
# [6] = molecular target: cysteines in MDA-MB-231 and Ramos cells (Homo sapiens, UniProt P12268); details: 200 μM, insitu
# cysteines in MDA-MB-231 and Ramos cells (Homo sapiens, UniProt Q8TAQ2), sequence (Q8TAQ2 whole entry): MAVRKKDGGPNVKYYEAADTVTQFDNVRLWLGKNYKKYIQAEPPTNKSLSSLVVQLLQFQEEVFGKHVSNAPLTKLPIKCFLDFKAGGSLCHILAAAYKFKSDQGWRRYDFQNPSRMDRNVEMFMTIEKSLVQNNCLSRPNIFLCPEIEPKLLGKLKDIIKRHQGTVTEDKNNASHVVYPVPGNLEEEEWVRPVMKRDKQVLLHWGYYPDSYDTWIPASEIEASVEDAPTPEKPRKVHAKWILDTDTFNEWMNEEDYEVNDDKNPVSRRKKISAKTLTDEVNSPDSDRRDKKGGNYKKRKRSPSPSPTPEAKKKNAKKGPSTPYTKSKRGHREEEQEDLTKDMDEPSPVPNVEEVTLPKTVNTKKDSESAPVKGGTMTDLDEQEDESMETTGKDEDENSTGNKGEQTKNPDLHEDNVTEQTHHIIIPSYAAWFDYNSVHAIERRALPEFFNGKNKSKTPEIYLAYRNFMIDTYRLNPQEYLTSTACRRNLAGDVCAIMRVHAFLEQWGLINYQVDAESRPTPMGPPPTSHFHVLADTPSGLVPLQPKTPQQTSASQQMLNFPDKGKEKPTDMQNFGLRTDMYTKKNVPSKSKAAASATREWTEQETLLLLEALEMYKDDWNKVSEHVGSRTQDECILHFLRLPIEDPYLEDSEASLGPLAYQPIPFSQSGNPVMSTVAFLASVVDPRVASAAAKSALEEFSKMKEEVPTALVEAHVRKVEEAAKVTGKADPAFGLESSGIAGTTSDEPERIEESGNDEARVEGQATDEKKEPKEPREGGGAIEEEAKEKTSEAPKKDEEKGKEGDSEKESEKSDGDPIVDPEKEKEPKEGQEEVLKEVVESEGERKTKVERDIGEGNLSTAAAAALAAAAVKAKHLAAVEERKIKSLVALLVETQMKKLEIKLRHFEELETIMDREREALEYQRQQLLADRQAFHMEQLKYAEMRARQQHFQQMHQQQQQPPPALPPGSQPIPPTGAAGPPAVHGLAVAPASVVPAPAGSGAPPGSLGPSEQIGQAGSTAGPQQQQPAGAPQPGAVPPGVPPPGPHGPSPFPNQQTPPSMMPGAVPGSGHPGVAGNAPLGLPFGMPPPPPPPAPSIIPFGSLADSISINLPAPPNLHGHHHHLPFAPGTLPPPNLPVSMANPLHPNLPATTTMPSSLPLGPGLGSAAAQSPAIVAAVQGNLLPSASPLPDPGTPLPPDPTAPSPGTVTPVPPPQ
compound,measurement,setting,value
O=C(CCl)N1CCN(S(=O)(=O)c2ccccc2F)CC1 [compound 10],isoTOP-ABPP ratio Q96S55_C272,[1],1.2
same,isoTOP-ABPP ratio Q8TAQ2_C145,[2],20.0
same,isoTOP-ABPP ratio P51946_C244,[3],1.7
same,isoTOP-ABPP ratio P24752_C119,[4]; 231,4.5
same,isoTOP-ABPP ratio P24752_C413,[4]; 231,7.8
same,"isoTOP-ABPP ratio, P24752_C126",[4]; 231,5.9
same,"isoTOP-ABPP ratio, P24752_C196",[4]; 231,5.1
same,isoTOP-ABPP ratio P24752_C119,[4]; ramos,1.5
same,isoTOP-ABPP ratio P24752_C413,[4]; ramos,2.2
same,"isoTOP-ABPP ratio, P24752_C196",[4]; ramos,2.3
same,isoTOP-ABPP ratio Q9BQ69_C186,[5],2.4
same,isoTOP-ABPP ratio P12268_C140,[6]; 231,0.7
same,isoTOP-ABPP ratio P12268_C140,[6]; ramos,0.9
same,isoTOP-ABPP ratio P12268_C331,[6]; ramos,2.1
